Measurements as given in patent US12589099B2 (priority 2021, dated 2026).

Tests used:
[1] = tested on: moderate traumatic brain injury (TBI) induced by controlled cortical impact (CCI); test: Foot-fault test (right forelimb and hindlimb) after TBI; assay type: in vivo, male Wistar rats
Procedure: (§1) FIG. 2: The figure illustrates functional tests that are carried out on healthy (sham surgery) no treatment, vehicle treated and ALPHA-1062 treated rats to assess sensorimotor and cognitive function after TBI. Sensimotor function tests. a) The figure depicts tests to assess the modified neurological severity score (mNSS). […] The animal is required to balance over a grid and the frequency of steps missing the grid are counted. This test assesses the functionality of the injured parietal cortex of the rat's brain. c) The adhesive removal test consists of applying adhesive tape on each forepaw of the animal and measuring the time-to-contact and the time-to-remove them. This behavior requires correct paw and mouth sensitivity (time-to-contact) and correct dexterity (time-to-remove). Cognitive function tests: a) This picture illustrates the Morris water maze that comprises that a rat is placed in a large circular pool (picture on the left) and is required to find an invisible platform that allows it to escape the water by using various visuo-spatial cues. This test is used to study spatial learning and memory and assesses hippocampal and select cortical brain region function. Usually, the path of the rat through the pool is tracked (picture on the right) and the time spend in the proximity of the platform as well as the time needed until the platform is found by the rat are measured. b) For the new/novel object recognition (NOR) test, after a habituation time in the test space (picture on far left) rats are given the opportunity to explore two identical objects (A) for a predetermined period of time (picture in the middle). After a delay, the animals are then presented with two objects to explore, one of which is the same as in the first exploration trial (A), the other a new object (B) (picture on the right). Depending on the length of the delay between the two trials or depending on the extend of cortical damage, the rats will either explore the novel object for a greater time period, indicating memory for the familiar object, or will explore the novel and familiar objects for the same amount of time, indicating a lack of recall or loss of memory for the familiar object presented during the initial trial.
Young adult (2-3 months) male Wistar rats were subjected to a moderate traumatic brain injury (TBI) induced by controlled cortical impact (CCI). Animal models of TBI including the CCI model and functional tests have been described in detail in peer reviewed publications (Xiong et al., 2013, Nat Rev Neurosci.; Zhang et al., 2016, J Neurosurg.; Zhang et al., 2016, Neurochem Int.; Zhang et al., 2021, J Neurotrauma). Injury consisted of a single impact at 4.0 m/sec, 2.5 mm deformation to the left parietal cortex. In addition, a group of animals was left healthy/not injured to serve as a healthy control.
The animals were divided into 3 groups: • 1) TBI+Vehicle (purified water, n=10) • 2) TBI+ALPHA-1062 (4.5 mg/kg) (n=10) • 3) Healthy/not injured and not treated (Sham surgery) (n=10)
The substance used in this study was ALPHA-1062 at 4.5 mg/kg. As control treatment (vehicle) purified water was administered intranasally (IN). The ALPHA-1062 and the control treatment were initiated 2 hours after injury and continued twice daily (with a 6-hour interval) for 35 consecutive days.
In addition, neurological functional tests were performed by conducting footfault tests and observations to determine the modified neurological severity score (mNSS) at 1, 7, 14, 21, 28, 35 days after TBI (see Table 1). The mNSS is a composite score assessing motor, sensory, balance, and reflex functions. Details of the tests and scoring system can be found in Table 2.
Animals were monitored as they walked across a mesh for the number of times their right forelimb “missed” proper placement, indicating reduced locomotor skill. This is indicative of trauma in the left side of the brain. The results are depicted in FIG. 3. […]

[2] = tested on: moderate traumatic brain injury (TBI) induced by controlled cortical impact (CCI); test: Right forelimb adhesive removal test after TBI; assay type: in vivo, male Wistar rats
Procedure: as §1
Young adult (2-3 months) male Wistar rats were subjected to a moderate traumatic brain injury (TBI) induced by controlled cortical impact (CCI). […]
In the adhesive removal test, an adhesive tape is applied to the right forepaw of an animal. Both the time-to-contact the adhesive (sensory perception), as well as the time-to-remove the adhesive (locomotor skill) are assessed by this test.

[3] = rats after TBI, compared to healthy sham animals
[4] = rats after TBI, compared to vehicle treatment

COc1ccc2c3c1O[C@H]1C[C@@H](OC(=O)c4ccccc4)C=C[C@@]31CCN(C)C2 [ALPHA-1062, (4aS,6R,8aS)-5,6,9,10,11,12-hexahydro-3-methoxy-11-methyl-4aH-[1]benzofuro[3a,3,2-ef][2]benzazepin-6-ol benzoate]
foot-fault performance compared to uninjured (sham) animals ([1]; 4.5 mg/kg IN twice daily, by day 28 (D28)): statistically indistinguishable | locomotor skill in fore- and hindlimb foot-fault test, acute ([1]; 4.5 mg/kg IN twice daily, from the first day of treatment, vs vehicle): statistically significant preservation of locomotor skill | recovery of locomotor skill in fore- and hindlimb foot-fault test ([1]; 4.5 mg/kg IN twice daily, throughout the study, vs vehicle): persistently statistically significantly improved recovery | right forelimb foot faults during the walk over a mesh ([1]; 4.5 mg/kg IN, 2 h post injury, twice daily, 35 days, vs vehicle after TBI (FIG. 3)): significantly fewer foot faults | right hindlimb foot faults during the walk over a mesh ([1]; 4.5 mg/kg IN, 2 h post injury, twice daily, 35 days, vs vehicle after TBI (FIG. 4)): significantly fewer foot faults | Footfault, performance over SHAM [1, 3]: equivalent to | Footfault, performance over VEHICLE [1, 4]: superior | adhesive removal (right forelimb) compared to vehicle ([2]; 4.5 mg/kg IN twice daily, from day 7 (D7) on (FIG. 6)): significantly better | adhesive removal (right forelimb) compared to uninjured (sham) animals ([2]; 4.5 mg/kg IN twice daily, starting on day 7 (D7), remainder of study): as well as the uninjured (sham) animals | Adhesive Removal, performance over SHAM [2, 3]: equivalent to | Adhesive Removal, performance over VEHICLE [2, 4]: superior
